Results on eight compounds are retold here after patent US20230203060A1 (GENFLEET THERAPEUTICS (SHANGHAI) INC., priority 2020, published 2023).

The test system of one experiment is A549 cells (KRAS G12S mutant). In words: Cell proliferation inhibition experiment, 3D spheroid, CellTiter-Glo, A549. Format: cell-based, human. As to conditions: A549 (KRAS G12S mutant) 3D spheroid, 5 days with compound, CellTiter-Glo; read-out: A549 IC50. The procedure, abridged: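 3D spheroid format; 800 H358 / 400 A549 cells/well, 2% FBS. Cpd 3.16-fold series, 0.1% DMSO, 5 d. Readout CellTiter-Glo luminescence; IR% vs DMSO control and medium blank; 4-parameter IC50.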
For the compound `C=CC(=O)N1CCN2C(=O)c3c(N4CCN(C)C(C)C4C)nc(-c4c(O)cccc4F)c(Cl)c3OC[C@H]2C1` (stereo partly drawn) [Z369, (6aR)-8-acryloyl-4-chloro-3-(2-fluoro-6-hydroxyphenyl)-1-(2,3,4-trimethylpiperazin-1-yl)-6,6a,7,8,9,10-hexahydro-12H-pyrazino[2,1-c]pyrido[3,4-f][1,4]oxazepin-12-one], the IC50 is 27.1 µM.

Still in this experiment, the particulars now being: Homo sapiens, A549, 120 h, A549 (KRAS G12S mutant) 3D spheroid, 5 days with compound, CellTiter-Glo; read-out: A549 IC50.
Turning to `C=CC(=O)N1CCN2C(=O)c3c(N4CCN(C)C[C@@H]4C)nc(-c4c(F)ccc(Cl)c4O)c(Cl)c3OC[C@H]2C1` [Z342, (6aR)-8-acryloyl-4-chloro-3-(3-chloro-6-fluoro-2-hydroxyphenyl)-1-((S)-2,4-dimethylpiperazin-1-yl)-6,6a,7,8,9,10-hexahydro-12H-pyrazino[2,1-c]pyrido[3,4-f][1,4]oxazepin-12-one], the half-maximal inhibitory concentration (IC50) worked out at 3.06 µM.

As for `C=CC(=O)N1CCN2C(=O)c3c(N4CCN(C)C[C@@H]4C)nc(-c4c(O)ccc(Cl)c4F)c(Cl)c3OC[C@H]2C1` [Z343, (6aR)-8-acryloyl-4-chloro-3-(3-chloro-2-fluoro-6-hydroxyphenyl)-1-((S)-2,4-dimethylpiperazin-1-yl)-6,6a,7,8,9,10-hexahydro-12H-pyrazino[2,1-c]pyrido[3,4-f][1,4]oxazepin-12-one], the IC50 was 6.8 µM.

As to `C=CC(=O)N1CCN2C(=O)c3c(N4CC(N5CCOCC5)CC4(C)C)nc(-c4c(O)cccc4F)c(Cl)c3OC[C@H]2C1` (stereo partly drawn) [Z344, (6aR)-8-acryloyl-4-chloro-1-((2,2-dimethyl-4-morpholinopyrrolidin-1-yl))-3-(2-fluoro-6-hydroxyphenyl)-6,6a,7,8,9,10-hexahydro-12H-pyrazino[2,1-c]pyrido[3,4-f][1,4]oxazepin-12-one], the IC50 was 3.72 µM.

Consider `C=CC(=O)N1CCN2C(=O)c3c(N4CC[C@H](OC)[C@@H]4C)nc(-c4c(O)cccc4F)c(Cl)c3OC[C@H]2C1` [Z347-1, (6aR)-8-acryloyl-4-chloro-3-(2-fluoro-6-hydroxyphenyl)-1-((2S,3S)-3-methoxy-2-methylpyrrolidin-1-yl)-6,6a,7,8,9,10-hexahydro-12H-pyrazino[2,1-c]pyrido[3,4-f][1,4]oxazepin-12-one], for which the IC50 is 9.55 µM.

On to `C=CC(=O)N1CCN2C(=O)c3c(N4CCN(C)C[C@@H]4C)nc(-c4c(F)ccc(F)c4O)c(Cl)c3OC[C@H]2C1` [Z356, (6aR)-8-acryloyl-4-chloro-3-(3,6-difluoro-2-hydroxyphenyl)-1-((S)-2,4-dimethylpiperazin-1-yl)-6,6a,7,8,9,10-hexahydro-12H-pyrazino[2,1-c]pyrido[3,4-f][1,4]oxazepin-12-one], for which the IC50 stood at 28.3 µM.

With `C=CC(=O)N1CCN2C(=O)c3c(N4C[C@@H](N(C)CCOC)C[C@@H]4C)nc(-c4c(O)cccc4F)c(Cl)c3OC[C@H]2C1` [Z358-1], the concentration for half-maximal inhibition (IC50) is above 10 µM.

Turning to `C=CC(=O)N1CCN2C(=O)c3c(N4C[C@@H](OC)C[C@@H]4C)nc(-c4c(O)cccc4F)c(F)c3OC[C@H]2C1` [Z359-1, (6aR)-8-actyloyl-4-fluoro-3-(2-fluoro-6-hydroxyphenyl)-1-((2S,4S)-4-methoxy-2-methylpyrrolidin-1-yl)-6,6a,7,8,9,10-hexahydro-12H-pyrazino[2,1-c]pyrido[3,4-f][1,4]oxazepin-12-one], the IC50 stood at 12.2 µM.
